According to ChEMBL document CHEMBL5465560, “Selectivity Literature for EUbOPEN Chemogenomic Library” (2024):

Assays:
[1] = molecular target: Platelet-derived growth factor receptor beta (Homo sapiens, UniProt P09619); experiment: Selectivity interaction (KinomeScan (DiscoverX)) EUB0001049a PDGFRB; conditions: at 1 µM
[2] = molecular target: Calcium/calmodulin-dependent protein kinase type 1G (Homo sapiens) (UniProt Q96NX5); experiment: Selectivity interaction (KinomeScan (DiscoverX)) EUB0001049a CAMK1G; conditions: at 1 µM
[3] = molecular target: MAO-A (MAOA) (Homo sapiens, UniProt P21397); experiment: Selectivity interaction (Safety Panel 44tm (Eurofins)) EUB0000162b MAOA; conditions: at 10 µM, read-out: % of control
[4] = molecular target: SRSF protein kinase 1 (Homo sapiens, UniProt Q96SB4); experiment: Selectivity interaction (KinomeScan (DiscoverX)) EUB0000666a SRPK1; conditions: at 10 µM
[5] = molecular target: Tyrosine-protein kinase JAK1 (Homo sapiens, UniProt P23458); experiment: Selectivity interaction (ActivX KiNativ screen (kinase selectivity in THP-1 cell lysates)) EUB0000639a JAK1; format: subcellular; conditions: lysate, at 0.2 µM
[6] = molecular target: T1, Megakaryocyte-associated tyrosine-protein kinase (Homo sapiens) (UniProt P42679); experiment: Selectivity interaction (Kinase panel (Invitrogen)) EUB0000639a MATK; conditions: at 200 nM
T1 sequence (whole entry): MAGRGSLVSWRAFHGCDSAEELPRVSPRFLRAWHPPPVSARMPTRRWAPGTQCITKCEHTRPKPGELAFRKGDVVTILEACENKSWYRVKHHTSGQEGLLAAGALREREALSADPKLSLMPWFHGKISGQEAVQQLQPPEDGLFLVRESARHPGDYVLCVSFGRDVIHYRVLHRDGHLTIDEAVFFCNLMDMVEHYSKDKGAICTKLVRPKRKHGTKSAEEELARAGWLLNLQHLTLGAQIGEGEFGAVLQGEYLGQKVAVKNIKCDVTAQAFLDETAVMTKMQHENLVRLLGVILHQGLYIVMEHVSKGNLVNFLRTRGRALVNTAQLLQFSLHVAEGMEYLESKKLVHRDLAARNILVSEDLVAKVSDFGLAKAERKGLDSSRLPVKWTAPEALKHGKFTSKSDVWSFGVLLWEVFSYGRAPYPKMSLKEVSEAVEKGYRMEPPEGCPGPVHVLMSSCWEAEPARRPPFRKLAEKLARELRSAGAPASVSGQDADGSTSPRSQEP

[7] = molecular target: T2, Serine/threonine-protein kinase TNNI3K (Homo sapiens) (UniProt Q59H18); experiment: Selectivity interaction (KinomeScan (DiscoverX)) EUB0000045b TNNI3K
T2 sequence (whole entry): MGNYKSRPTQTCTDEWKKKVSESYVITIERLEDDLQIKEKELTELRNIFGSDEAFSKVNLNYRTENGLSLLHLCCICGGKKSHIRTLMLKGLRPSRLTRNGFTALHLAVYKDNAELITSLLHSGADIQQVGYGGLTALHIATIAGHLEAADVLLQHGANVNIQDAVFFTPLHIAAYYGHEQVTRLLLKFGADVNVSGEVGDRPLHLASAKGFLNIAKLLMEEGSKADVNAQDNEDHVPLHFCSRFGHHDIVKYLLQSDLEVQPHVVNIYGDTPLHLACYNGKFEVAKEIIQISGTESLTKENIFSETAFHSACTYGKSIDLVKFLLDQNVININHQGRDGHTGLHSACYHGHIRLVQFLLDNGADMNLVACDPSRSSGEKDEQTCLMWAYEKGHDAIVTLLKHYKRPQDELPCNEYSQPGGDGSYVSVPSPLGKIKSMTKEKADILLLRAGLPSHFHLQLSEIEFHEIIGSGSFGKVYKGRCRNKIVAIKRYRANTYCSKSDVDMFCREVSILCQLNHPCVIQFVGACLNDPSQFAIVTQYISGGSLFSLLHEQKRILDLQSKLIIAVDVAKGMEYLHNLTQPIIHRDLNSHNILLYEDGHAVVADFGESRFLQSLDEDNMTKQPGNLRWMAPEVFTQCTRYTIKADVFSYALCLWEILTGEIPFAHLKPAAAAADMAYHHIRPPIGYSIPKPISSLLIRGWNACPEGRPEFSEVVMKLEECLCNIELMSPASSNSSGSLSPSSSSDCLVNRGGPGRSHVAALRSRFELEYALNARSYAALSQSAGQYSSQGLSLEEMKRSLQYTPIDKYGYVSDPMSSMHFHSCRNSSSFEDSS

[8] = molecular target: Cyclin-dependent kinase 16 (Homo sapiens) (UniProt Q00536); experiment: Selectivity interaction (ActivX KiNativ screen (ex vivo kinase selectivity in human PBMCs)) EUB0001619a CDK16; format: cell-based; conditions: PBMC, at 1 µM
[9] = molecular target: T3, Testis-specific serine/threonine-protein kinase 1 (Homo sapiens) (UniProt Q9BXA7); experiment: Selectivity interaction (KinomeScan (DiscoverX)) EUB0001619a TSSK1B; conditions: at 1 µM
T3 sequence (whole entry): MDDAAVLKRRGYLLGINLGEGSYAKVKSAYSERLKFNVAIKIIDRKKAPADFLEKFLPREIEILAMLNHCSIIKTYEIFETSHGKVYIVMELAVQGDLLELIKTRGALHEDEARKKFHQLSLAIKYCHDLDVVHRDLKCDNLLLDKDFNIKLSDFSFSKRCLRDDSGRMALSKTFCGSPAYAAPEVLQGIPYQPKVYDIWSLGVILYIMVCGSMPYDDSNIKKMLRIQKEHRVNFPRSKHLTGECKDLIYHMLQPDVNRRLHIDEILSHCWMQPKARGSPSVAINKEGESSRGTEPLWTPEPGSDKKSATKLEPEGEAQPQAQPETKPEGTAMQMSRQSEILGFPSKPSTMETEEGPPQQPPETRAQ

[10] = molecular target: T4, Myotonin-protein kinase (Homo sapiens) (UniProt Q09013); experiment: Selectivity interaction (KinomeScan (DiscoverX)) EUB0000607a DMPK; conditions: at 10 µM
T4 sequence (whole entry): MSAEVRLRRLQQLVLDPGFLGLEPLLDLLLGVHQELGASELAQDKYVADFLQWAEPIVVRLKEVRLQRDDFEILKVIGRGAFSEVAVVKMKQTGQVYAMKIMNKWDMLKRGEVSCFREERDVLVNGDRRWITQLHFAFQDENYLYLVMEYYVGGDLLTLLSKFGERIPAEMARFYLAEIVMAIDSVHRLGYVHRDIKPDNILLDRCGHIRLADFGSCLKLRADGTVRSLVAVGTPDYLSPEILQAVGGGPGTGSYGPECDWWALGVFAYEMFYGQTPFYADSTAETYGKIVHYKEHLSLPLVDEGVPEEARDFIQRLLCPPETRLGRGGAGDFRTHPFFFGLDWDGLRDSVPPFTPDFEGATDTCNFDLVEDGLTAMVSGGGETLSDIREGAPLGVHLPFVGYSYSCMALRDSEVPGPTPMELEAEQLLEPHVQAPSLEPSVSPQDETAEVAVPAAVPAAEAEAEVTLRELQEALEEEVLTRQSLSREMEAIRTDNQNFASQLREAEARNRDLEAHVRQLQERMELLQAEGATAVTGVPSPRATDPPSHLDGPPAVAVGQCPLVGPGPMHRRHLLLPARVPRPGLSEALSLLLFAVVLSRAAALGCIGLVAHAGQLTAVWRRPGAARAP

Sequence of Platelet-derived growth factor receptor beta (P09619 whole entry): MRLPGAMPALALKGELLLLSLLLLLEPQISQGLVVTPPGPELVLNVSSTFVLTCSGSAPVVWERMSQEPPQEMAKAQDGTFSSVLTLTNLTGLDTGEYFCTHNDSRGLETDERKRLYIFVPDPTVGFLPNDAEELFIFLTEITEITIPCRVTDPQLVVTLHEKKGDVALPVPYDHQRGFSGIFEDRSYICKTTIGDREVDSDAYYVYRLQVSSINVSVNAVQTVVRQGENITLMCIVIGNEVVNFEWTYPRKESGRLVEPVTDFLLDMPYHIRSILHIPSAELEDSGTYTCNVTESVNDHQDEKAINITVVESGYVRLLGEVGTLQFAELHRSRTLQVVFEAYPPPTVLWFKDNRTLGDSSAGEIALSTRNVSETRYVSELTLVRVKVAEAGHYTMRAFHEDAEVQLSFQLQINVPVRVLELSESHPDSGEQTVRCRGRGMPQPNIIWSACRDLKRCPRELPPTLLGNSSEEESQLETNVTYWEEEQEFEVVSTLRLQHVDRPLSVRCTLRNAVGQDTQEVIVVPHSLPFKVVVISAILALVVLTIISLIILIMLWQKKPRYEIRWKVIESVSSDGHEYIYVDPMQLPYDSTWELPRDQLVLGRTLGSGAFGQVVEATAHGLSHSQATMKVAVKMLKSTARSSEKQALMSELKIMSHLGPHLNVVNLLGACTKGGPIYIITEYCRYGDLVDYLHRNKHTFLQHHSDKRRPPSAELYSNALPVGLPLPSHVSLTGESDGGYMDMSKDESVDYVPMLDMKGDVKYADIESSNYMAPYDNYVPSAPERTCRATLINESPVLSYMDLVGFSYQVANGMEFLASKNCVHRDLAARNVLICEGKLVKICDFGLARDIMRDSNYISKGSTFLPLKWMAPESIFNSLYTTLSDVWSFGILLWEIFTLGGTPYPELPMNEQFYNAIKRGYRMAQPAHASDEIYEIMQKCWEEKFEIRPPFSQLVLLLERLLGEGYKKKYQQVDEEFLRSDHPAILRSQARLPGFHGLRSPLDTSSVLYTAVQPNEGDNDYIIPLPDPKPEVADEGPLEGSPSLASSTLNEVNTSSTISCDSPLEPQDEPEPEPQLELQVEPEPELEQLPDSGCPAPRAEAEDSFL
Sequence of Tyrosine-protein kinase JAK1 (P23458 whole entry): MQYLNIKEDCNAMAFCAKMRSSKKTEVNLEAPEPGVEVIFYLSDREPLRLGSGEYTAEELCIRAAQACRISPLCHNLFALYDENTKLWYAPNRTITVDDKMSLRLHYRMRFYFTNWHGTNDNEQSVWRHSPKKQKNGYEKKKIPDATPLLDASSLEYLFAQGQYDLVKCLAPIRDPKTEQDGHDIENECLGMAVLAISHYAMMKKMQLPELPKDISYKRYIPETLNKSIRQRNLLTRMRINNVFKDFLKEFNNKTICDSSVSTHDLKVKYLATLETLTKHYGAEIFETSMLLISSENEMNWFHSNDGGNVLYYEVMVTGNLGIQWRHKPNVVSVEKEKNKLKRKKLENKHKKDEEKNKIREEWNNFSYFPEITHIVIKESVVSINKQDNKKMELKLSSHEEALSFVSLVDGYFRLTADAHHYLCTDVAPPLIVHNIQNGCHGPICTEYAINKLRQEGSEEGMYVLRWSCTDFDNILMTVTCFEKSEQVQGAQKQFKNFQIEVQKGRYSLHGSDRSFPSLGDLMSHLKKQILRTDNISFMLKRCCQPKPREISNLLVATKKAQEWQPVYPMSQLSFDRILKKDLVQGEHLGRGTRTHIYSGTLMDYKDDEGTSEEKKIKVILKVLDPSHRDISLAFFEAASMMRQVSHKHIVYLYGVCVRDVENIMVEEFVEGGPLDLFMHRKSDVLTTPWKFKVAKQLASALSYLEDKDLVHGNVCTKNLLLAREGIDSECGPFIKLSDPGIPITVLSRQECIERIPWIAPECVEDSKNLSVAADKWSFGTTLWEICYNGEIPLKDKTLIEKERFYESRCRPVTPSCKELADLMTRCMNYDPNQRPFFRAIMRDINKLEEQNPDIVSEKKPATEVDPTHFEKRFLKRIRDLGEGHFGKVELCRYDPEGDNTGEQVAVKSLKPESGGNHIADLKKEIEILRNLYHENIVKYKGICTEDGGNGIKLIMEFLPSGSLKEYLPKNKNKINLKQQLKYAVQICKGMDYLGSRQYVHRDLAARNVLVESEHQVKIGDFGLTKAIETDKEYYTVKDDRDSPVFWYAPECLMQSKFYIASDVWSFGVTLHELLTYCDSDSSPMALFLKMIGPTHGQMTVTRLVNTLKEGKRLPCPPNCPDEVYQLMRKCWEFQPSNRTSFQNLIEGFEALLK
Sequence of Calcium/calmodulin-dependent protein kinase type 1G (Homo sapiens) (Q96NX5 whole entry): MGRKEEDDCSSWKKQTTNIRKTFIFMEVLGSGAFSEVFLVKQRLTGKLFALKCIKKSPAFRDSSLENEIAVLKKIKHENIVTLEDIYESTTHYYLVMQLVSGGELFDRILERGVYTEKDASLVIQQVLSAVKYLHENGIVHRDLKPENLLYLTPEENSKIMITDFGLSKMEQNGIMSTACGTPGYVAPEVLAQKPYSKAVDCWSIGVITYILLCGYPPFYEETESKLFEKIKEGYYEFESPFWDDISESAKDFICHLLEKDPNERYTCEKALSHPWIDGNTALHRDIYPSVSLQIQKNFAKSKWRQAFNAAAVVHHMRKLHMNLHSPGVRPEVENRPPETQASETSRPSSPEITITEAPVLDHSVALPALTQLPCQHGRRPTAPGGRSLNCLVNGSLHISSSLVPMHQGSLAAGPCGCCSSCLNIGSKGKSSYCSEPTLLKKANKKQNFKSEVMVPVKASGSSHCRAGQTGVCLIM
Sequence of Cyclin-dependent kinase 16 (Homo sapiens) (Q00536 whole entry): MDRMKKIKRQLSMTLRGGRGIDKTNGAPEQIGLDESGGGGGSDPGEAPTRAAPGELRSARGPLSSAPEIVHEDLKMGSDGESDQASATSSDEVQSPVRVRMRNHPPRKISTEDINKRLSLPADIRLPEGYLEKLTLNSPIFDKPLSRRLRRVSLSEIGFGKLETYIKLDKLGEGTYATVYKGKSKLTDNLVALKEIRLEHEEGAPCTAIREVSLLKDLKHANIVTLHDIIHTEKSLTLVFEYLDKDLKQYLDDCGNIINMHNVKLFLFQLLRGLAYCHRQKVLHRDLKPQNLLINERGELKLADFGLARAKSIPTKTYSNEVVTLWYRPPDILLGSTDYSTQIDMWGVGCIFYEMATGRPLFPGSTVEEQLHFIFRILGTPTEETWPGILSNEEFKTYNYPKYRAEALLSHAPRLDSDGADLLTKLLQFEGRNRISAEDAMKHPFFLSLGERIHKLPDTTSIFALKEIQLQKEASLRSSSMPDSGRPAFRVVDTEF
Sequence of SRSF protein kinase 1 (Q96SB4 whole entry): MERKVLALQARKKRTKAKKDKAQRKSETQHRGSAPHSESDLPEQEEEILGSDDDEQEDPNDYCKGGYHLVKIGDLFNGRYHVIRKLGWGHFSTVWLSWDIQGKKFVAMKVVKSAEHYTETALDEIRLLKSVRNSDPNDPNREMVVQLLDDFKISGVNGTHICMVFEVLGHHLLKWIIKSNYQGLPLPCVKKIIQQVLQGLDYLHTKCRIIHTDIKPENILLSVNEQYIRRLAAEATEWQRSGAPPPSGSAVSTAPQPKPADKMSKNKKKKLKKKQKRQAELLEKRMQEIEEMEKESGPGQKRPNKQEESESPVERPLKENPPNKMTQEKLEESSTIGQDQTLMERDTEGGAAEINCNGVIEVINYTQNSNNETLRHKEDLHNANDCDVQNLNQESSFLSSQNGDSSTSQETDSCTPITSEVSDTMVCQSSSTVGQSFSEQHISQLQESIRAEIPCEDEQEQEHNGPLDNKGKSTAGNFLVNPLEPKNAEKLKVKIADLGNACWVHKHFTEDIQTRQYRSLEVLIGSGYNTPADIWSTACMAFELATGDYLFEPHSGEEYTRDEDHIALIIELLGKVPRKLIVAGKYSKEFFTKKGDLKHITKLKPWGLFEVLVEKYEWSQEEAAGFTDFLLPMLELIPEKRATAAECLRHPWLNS
Sequence of MAO-A (MAOA) (P21397 whole entry): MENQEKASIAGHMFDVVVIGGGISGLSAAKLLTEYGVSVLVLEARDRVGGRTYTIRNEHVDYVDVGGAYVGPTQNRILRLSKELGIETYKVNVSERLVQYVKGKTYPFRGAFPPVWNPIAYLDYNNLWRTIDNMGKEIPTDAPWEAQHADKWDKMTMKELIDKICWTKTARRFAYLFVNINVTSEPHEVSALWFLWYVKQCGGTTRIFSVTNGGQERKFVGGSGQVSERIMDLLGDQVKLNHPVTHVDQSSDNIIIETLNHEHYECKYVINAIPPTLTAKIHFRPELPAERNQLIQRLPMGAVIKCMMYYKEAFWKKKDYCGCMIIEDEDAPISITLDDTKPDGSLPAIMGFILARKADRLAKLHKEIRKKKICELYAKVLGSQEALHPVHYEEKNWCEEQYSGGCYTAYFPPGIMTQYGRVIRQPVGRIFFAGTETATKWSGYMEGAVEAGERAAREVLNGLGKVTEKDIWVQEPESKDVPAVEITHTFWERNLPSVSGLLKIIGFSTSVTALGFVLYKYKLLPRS

COc1cc(Nc2nc(C)cc(-c3cnn4nc(OC)ccc34)n2)cc(C(F)(F)F)c1
% of control [1]: 100% | % of control [2]: 95%

CN(C)C(=O)Cn1cc(-c2ccc(-c3cncc4ccccc34)cc2)cn1
activity [3]: 30%

O=C(NOC[C@H](O)CO)c1ccc(F)c(F)c1Nc1ccc(I)cc1F
% of control [4]: 100%

CC[C@@H]1[C@H](F)C(=O)N[C@@H]1COc1nccc2cc(C(N)=O)c(OC)cc12 [ZIMLOVISERTIB]
% of inhibition [5]: -1.1% | % of inhibition [6]: 1.51%

C=CC(=O)Nc1cc(-n2c(=O)ccc3cnc4ccc(-c5ccc(NS(C)(=O)=O)cc5)cc4c32)ccc1C
% of control ([7]; at 1 µM): 100% | % of control ([7]; at 10 µM): 77%

N#Cc1cccc(-c2c[nH]c3ncnc(N4CCOCC4)c23)c1
% of inhibition [8]: 25% | % of control [9]: 75%

CNC(=O)Nc1ccc(-c2nc(N3CC4CCC(C3)O4)c3cnn(C4CCC5(CC4)OCCO5)c3n2)cc1
% of control [10]: 83%
